IC50 data for eight compounds are collected here from BindingDB's records for doi:10.1016/j.bmcl.2016.04.011 (The University of Jordan, 2016).

Test [1] can be described thus: Inhibition of EGFR in human MDA231 cells assessed as growth inhibition after 24 hrs by MTT assay. (In general: Tetrazolium assays rely on reduction of a dye to a coloured formazan, in cell work by metabolically active cells.)
The nature of test [2]: Inhibition of PI3Kalpha in human HCT116 cells coexpressing PI3Kalpha H1047R mutant assessed as growth inhibition after 24 hrs by MTT assay.

A word on the IC50: it is the point on the concentration scale where inhibition reaches its midpoint. As to `CC(O)c1cccc(NC(=O)c2cc3ccccc3[nH]2)c1` (stereo unspecified), the IC50 was determined as 34 µM in test [1] and 38 µM in test [2].

On to `O=C(Nc1cccc(C(O)c2ccccc2)c1)c1cc2ccccc2[nH]1` (stereo unspecified), for which the values for the IC50 in test [1] and in test [2] were 15 µM and 19 µM, respectively.

Consider `O=C(c1ccccc1)c1ccc(NC(=O)c2cc3ccccc3[nH]2)cc1`, for which the IC50 is 49 µM in test [1] and 54 µM in test [2].

On to `CC(O)c1ccc(NC(=O)c2cc3ccccc3[nH]2)cc1` (stereo unspecified), for which the IC50 in test [1] is 35 µM; in test [2], 37 µM.

Regarding `O=C(c1ccccc1)c1cccc(NC(=O)c2cc3ccccc3[nH]2)c1`, the IC50 was found to be 45 µM in test [1] and 55 µM in test [2].

As to `CC(=O)c1cccc(NC(=O)c2cc3ccccc3[nH]2)c1`, the figures for the concentration for half-maximal inhibition (IC50) in test [1] and in test [2] were 57 µM and 64 µM, respectively.

Turning to `O=C(Nc1ccc(C(O)c2ccccc2)cc1)c1cc2ccccc2[nH]1` (stereo unspecified), the IC50 in test [1] came to 38 µM; in test [2], 44 µM.

As for `CC(=O)c1ccc(NC(=O)c2cc3ccccc3[nH]2)cc1`, the half-inhibitory concentration (IC50) stood at 50 µM in test [1] and 61 µM in test [2].
